Experimental data published in patent US20240158446A1, “CYCLIC COMPOUND HAVING SELECTIVE INHIBITORY ACTION ON KRAS OVER HRAS AND NRAS” (CHUGAI SEIYAKU KABUSHIKI KAISHA, priority 2021, published 2024).
*1 amine or outer side, *2 acyl side, *3 side chain or, on linkers, in order; H or OH if unused. Where a SMILES comes first, the peptide text is derived from it. Bridges are numbered along the chain shown (N, C = ends). [ ]: non-standard residue; d: D form. The star is where a group is joined. hPhe(3,5-F2-4-CF3) = N[C@@H](CCc1cc(F)c(C(F)(F)F)c(F)c1)C(=O)O; hPhe(3-Cl-4-CF3) = N[C@@H](CCc1ccc(C(F)(F)F)c(Cl)c1)C(=O)O; NPrPhe(4-CF3) = CCCN[C@@H](Cc1ccc(C(F)(F)F)cc1)C(=O)O; X13 = O=C([C@@H](N[*:1])C1CC(F)(F)C1)[*:2]; NMeGly(cPent) = CN[C@H](C(=O)O)C1CCCC1; X11 = CCC[C@](C)(N[*:1])C(=O)[*:2]; Nva(3-Et) = CCC(CC)[C@H](N)C(=O)O; αMeI = CC[C@H](C)[C@](C)(N)C(=O)O; Gly(N-propargyl) = C#CCNCC(=O)O; NMeD = CN[C@@H](CC(=O)O)C(=O)O; NMeL = CN[C@@H](CC(C)C)C(=O)O; X50 = O=C(CN(CCF)[*:1])[*:2]; Iva = CC[C@](C)(N)C(=O)O; Morpholide = C1CN(*)CCO1; NAllylGly = C=CCNCC(=O)O; Ac5c = NC1(C(=O)O)CCCC1; Sar = CNCC(=O)O

How the values were obtained:
[1] = target: GDP-bound HRAS wild-type protein (Homo sapiens, UniProt P01112); experiment: Binding to HRAS by surface plasmon resonance (SPR), Single Cycle Kinetics; settings: SPR, GDP-bound HRAS wild-type protein vs GDP-bound KRAS wild-type protein
[2] = target: GDP-bound KRAS wild-type protein (Homo sapiens, UniProt P01116); experiment: Binding to KRAS by surface plasmon resonance (SPR), Single Cycle Kinetics; settings: SPR Single Cycle Kinetics, GDP-bound KRAS wild-type protein, 1:1 binding model; read-out: KRAS KD
[3] = target: GDP-bound NRAS wild-type protein (Homo sapiens, UniProt P01111); experiment: Binding to NRAS by surface plasmon resonance (SPR), Single Cycle Kinetics; settings: SPR, GDP-bound NRAS wild-type protein vs GDP-bound KRAS wild-type protein
Sequence of GDP-bound NRAS wild-type protein (P01111 whole entry): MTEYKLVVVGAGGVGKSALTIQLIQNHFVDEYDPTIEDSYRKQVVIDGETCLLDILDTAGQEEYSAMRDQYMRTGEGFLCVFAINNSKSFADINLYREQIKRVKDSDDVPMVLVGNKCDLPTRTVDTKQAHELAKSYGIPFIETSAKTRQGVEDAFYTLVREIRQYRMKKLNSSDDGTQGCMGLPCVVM

Sequence of GDP-bound KRAS wild-type protein (P01116 whole entry): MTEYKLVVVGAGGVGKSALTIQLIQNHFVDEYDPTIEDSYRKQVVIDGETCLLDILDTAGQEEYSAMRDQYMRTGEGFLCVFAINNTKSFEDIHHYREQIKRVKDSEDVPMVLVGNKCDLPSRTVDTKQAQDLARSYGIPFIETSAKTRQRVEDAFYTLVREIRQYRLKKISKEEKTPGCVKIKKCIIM
Sequence of GDP-bound HRAS wild-type protein (P01112 whole entry): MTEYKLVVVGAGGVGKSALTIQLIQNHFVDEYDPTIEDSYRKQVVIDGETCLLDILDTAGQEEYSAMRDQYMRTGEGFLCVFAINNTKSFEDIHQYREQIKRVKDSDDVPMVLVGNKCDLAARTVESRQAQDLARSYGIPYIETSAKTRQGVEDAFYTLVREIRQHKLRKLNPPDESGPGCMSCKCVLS

Row | Compound | HRAS/KRAS (ratio of KD value with respect to HRAS to KD value with respect to KRAS) [1] | Kd [2] [nM] | NRAS/KRAS (ratio of KD value with respect to NRAS to KD value with respect to KRAS) [3]
1 | CCCN1C(=O)CN(C)C(=O)CN(C)C(=O)[C@H](C(CC)CC)NC(=O)[C@H](CC(C)C)N(C)C(=O)C[C@@H](C(=O)N(C)C)N(C)C(=O)[C@H](C2CCCC2)N(C)C(=O)C2(CCCC2)NC(=O)[C@@H]2CCCN2C(=O)[C@H](CCc2cc(F)c(C(F)(F)F)c(F)c2)NC(=O)CN(C)C(=O)[C@@H]1Cc1ccc(C(F)(F)F)cc1 [PP0747] ([NMeL][Nva(3-Et)][Sar][Sar][NPrPhe(4-CF3)][Sar][hPhe(3,5-F2-4-CF3)]P[Ac5c][NMeGly(cPent)][NMeD]-NMe2; lactam N-11) | C (A compound having a KD ratio of 0.1 or more and less than 3 is denoted as C) | 0.36 | B (a compound having 3 or more and less than 10 is denoted as B)
2 | CCCN1C(=O)CN(C)C(=O)CN(C)C(=O)[C@H](C2CC(F)(F)C2)NC(=O)[C@H](CC(C)C)N(C)C(=O)C[C@@H](C(=O)N(C)C)N(C)C(=O)[C@H](C2CCCC2)N(C)C(=O)C2(CCCC2)NC(=O)[C@@H]2CCCN2C(=O)[C@H](CCc2cc(F)c(C(F)(F)F)c(F)c2)NC(=O)CN(C)C(=O)[C@@H]1Cc1ccc(C(F)(F)F)cc1 [PP0748] ([NMeL][X13][Sar][Sar][NPrPhe(4-CF3)][Sar][hPhe(3,5-F2-4-CF3)]P[Ac5c][NMeGly(cPent)][NMeD]-NMe2; lactam N-11) | B (a compound having 3 or more and less than 10 is denoted as B) | 0.08 | B (a compound having 3 or more and less than 10 is denoted as B)
3 | C=CCN1CC(=O)N(C)CC(=O)N(CCC)[C@@H](Cc2ccc(C(F)(F)F)cc2)C(=O)N(C)CC(=O)N[C@@H](CCc2ccc(C(F)(F)F)c(Cl)c2)C(=O)N2CCC[C@H]2C(=O)NC2(CCCC2)C(=O)N(C)[C@@H](C2CCCC2)C(=O)N(C)[C@H](C(=O)N2CCOCC2)CC(=O)N(C)[C@@H](CC(C)C)C(=O)N[C@@H]([C@@H](C)CC)C1=O [PP0749] ([NMeL]I[NAllylGly][Sar][NPrPhe(4-CF3)][Sar][hPhe(3-Cl-4-CF3)]P[Ac5c][NMeGly(cPent)][NMeD]-Morpholide; lactam N-11) | C (A compound having a KD ratio of 0.1 or more and less than 3 is denoted as C) | 0.59 | B (a compound having 3 or more and less than 10 is denoted as B)
4 | C#CCN1CC(=O)N(C)CC(=O)N(CCC)[C@@H](Cc2ccc(C(F)(F)F)cc2)C(=O)N(C)CC(=O)N[C@@H](CCc2ccc(C(F)(F)F)c(Cl)c2)C(=O)N2CCC[C@H]2C(=O)NC2(CCCC2)C(=O)N(C)[C@@H](C2CCCC2)C(=O)N(C)[C@H](C(=O)N2CCOCC2)CC(=O)N(C)[C@@H](CC(C)C)C(=O)N[C@@H]([C@@H](C)CC)C1=O [PP0750] ([NMeL]I[Gly(N-propargyl)][Sar][NPrPhe(4-CF3)][Sar][hPhe(3-Cl-4-CF3)]P[Ac5c][NMeGly(cPent)][NMeD]-Morpholide; lactam N-11) | C (A compound having a KD ratio of 0.1 or more and less than 3 is denoted as C) | 0.37 | B (a compound having 3 or more and less than 10 is denoted as B)
5 | CCCN1C(=O)CN(C)C(=O)CN(CCF)C(=O)[C@H]([C@@H](C)CC)NC(=O)[C@H](CC(C)C)N(C)C(=O)C[C@@H](C(=O)N2CCOCC2)N(C)C(=O)[C@H](C2CCCC2)N(C)C(=O)C2(CCCC2)NC(=O)[C@@H]2CCCN2C(=O)[C@H](CCc2ccc(C(F)(F)F)c(Cl)c2)NC(=O)CN(C)C(=O)[C@@H]1Cc1ccc(C(F)(F)F)cc1 [PP0751] ([NMeL]I[X50][Sar][NPrPhe(4-CF3)][Sar][hPhe(3-Cl-4-CF3)]P[Ac5c][NMeGly(cPent)][NMeD]-Morpholide; lactam N-11) | C (A compound having a KD ratio of 0.1 or more and less than 3 is denoted as C) | 0.52 | B (a compound having 3 or more and less than 10 is denoted as B)
6 | CCCN1C(=O)CN(C)C(=O)CN(C)C(=O)[C@H]([C@@H](C)CC)NC(=O)[C@H](CC(C)C)N(C)C(=O)C[C@@H](C(=O)N2CCOCC2)N(C)C(=O)[C@H](C2CCCC2)N(C)C(=O)C2(CCCC2)NC(=O)[C@@H]2CCCN2C(=O)[C@H](CCc2cc(F)c(C(F)(F)F)c(F)c2)NC(=O)CN(C)C(=O)[C@@H]1Cc1ccc(C(F)(F)F)cc1 [PP0753] ([NMeL]I[Sar][Sar][NPrPhe(4-CF3)][Sar][hPhe(3,5-F2-4-CF3)]P[Ac5c][NMeGly(cPent)][NMeD]-Morpholide; lactam N-11) | C (A compound having a KD ratio of 0.1 or more and less than 3 is denoted as C) | 0.14 | B (a compound having 3 or more and less than 10 is denoted as B)
7 | CCCN1C(=O)CN(C)C(=O)CN(C)C(=O)[C@H]([C@@H](C)CC)NC(=O)[C@H](CC(C)C)N(C)C(=O)C[C@@H](C(=O)N2CCOCC2)N(C)C(=O)[C@H](C2CCCC2)N(C)C(=O)[C@](C)(CC)NC(=O)[C@@H]2CCCN2C(=O)[C@H](CCc2cc(F)c(C(F)(F)F)c(F)c2)NC(=O)CN(C)C(=O)[C@@H]1Cc1ccc(C(F)(F)F)cc1 [PP0754] ([NMeL]I[Sar][Sar][NPrPhe(4-CF3)][Sar][hPhe(3,5-F2-4-CF3)]P[Iva][NMeGly(cPent)][NMeD]-Morpholide; lactam N-11) | C (A compound having a KD ratio of 0.1 or more and less than 3 is denoted as C) | 0.49 | B (a compound having 3 or more and less than 10 is denoted as B)
8 | CCCN1C(=O)CN(C)C(=O)CN(C)C(=O)[C@H]([C@@H](C)CC)NC(=O)[C@H](CC(C)C)N(C)C(=O)C[C@@H](C(=O)N2CCOCC2)N(C)C(=O)[C@H](C2CCCC2)N(C)C(=O)[C@](C)([C@@H](C)CC)NC(=O)[C@@H]2CCCN2C(=O)[C@H](CCc2cc(F)c(C(F)(F)F)c(F)c2)NC(=O)CN(C)C(=O)[C@@H]1Cc1ccc(C(F)(F)F)cc1 [PP0757] ([NMeL]I[Sar][Sar][NPrPhe(4-CF3)][Sar][hPhe(3,5-F2-4-CF3)]P[αMeI][NMeGly(cPent)][NMeD]-Morpholide; lactam N-11) | C (A compound having a KD ratio of 0.1 or more and less than 3 is denoted as C) | 4 | B (a compound having 3 or more and less than 10 is denoted as B)
9 | CCCN1C(=O)CN(C)C(=O)CN(C)C(=O)[C@H]([C@@H](C)CC)NC(=O)[C@H](CC(C)C)N(C)C(=O)C[C@@H](C(=O)N2CCOCC2)N(C)C(=O)[C@H](C2CCCC2)N(C)C(=O)[C@](C)(CCC)NC(=O)[C@@H]2CCCN2C(=O)[C@H](CCc2cc(F)c(C(F)(F)F)c(F)c2)NC(=O)CN(C)C(=O)[C@@H]1Cc1ccc(C(F)(F)F)cc1 [PP0758] ([NMeL]I[Sar][Sar][NPrPhe(4-CF3)][Sar][hPhe(3,5-F2-4-CF3)]P[X11][NMeGly(cPent)][NMeD]-Morpholide; lactam N-11) | C (A compound having a KD ratio of 0.1 or more and less than 3 is denoted as C) | 1.6 | B (a compound having 3 or more and less than 10 is denoted as B)
